PubChem BioAssay (NCI)
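Assay format: 96-well plates, 48-hour exposure. GI50 = concentration required for 50% inhibition of growth. TGI is the concentration that stops growth completely.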

Tests used:
Assay in all cases: NCI tumour cell line growth inhibition, 48 h
KM12 colon = system: KM12 colon
DU-145 prostate = system: DU-145 prostate
IGROV1 ovarian = system: IGROV1 ovarian
NCI/ADR-RES ovarian = system: NCI/ADR-RES ovarian
NCI-H23 lung = system: NCI-H23 lung
OVCAR-5 ovarian = system: OVCAR-5 ovarian
SW-620 colon = system: SW-620 colon
RPMI-8226 leukemia = system: RPMI-8226 leukemia
UACC-62 melanoma = system: UACC-62 melanoma
U251 CNS = system: U251 CNS
MDA-MB-231 breast = system: MDA-MB-231 breast
A498 renal = system: A498 renal
OVCAR-8 ovarian = system: OVCAR-8 ovarian
CAKI-1 renal = system: CAKI-1 renal
TK-10 renal = system: TK-10 renal
HOP-62 NSCLC = system: HOP-62 NSCLC
SK-MEL-28 melanoma = system: SK-MEL-28 melanoma
SF-268 CNS = system: SF-268 CNS
MCF7 breast = system: MCF7 breast
786-0 renal = system: 786-0 renal
HL-60(TB) leukemia = system: HL-60(TB) leukemia
M14 melanoma = system: M14 melanoma
NCI-H226 lung = system: NCI-H226 lung
SR leukemia = system: SR leukemia
SF-539 CNS = system: SF-539 CNS
BT-549 breast = system: BT-549 breast
MOLT-4 leukemia = system: MOLT-4 leukemia
UO-31 renal = system: UO-31 renal
OVCAR-4 ovarian = system: OVCAR-4 ovarian
HCT-116 colon = system: HCT-116 colon
SK-MEL-2 melanoma = system: SK-MEL-2 melanoma
NCI-H460 lung = system: NCI-H460 lung
T-47D breast = system: T-47D breast
SNB-75 CNS = system: SNB-75 CNS
EKVX NSCLC = system: EKVX NSCLC
NCI-H522 lung = system: NCI-H522 lung
OVCAR-3 ovarian = system: OVCAR-3 ovarian
A549 NSCLC = system: A549 NSCLC
CCRF-CEM leukemia = system: CCRF-CEM leukemia
UACC-257 melanoma = system: UACC-257 melanoma
HS 578T breast = system: HS 578T breast
COLO 205 colon = system: COLO 205 colon
MALME-3M melanoma = system: MALME-3M melanoma
HCT-15 colon = system: HCT-15 colon
SNB-19 CNS = system: SNB-19 CNS
ACHN renal = system: ACHN renal
SK-OV-3 ovarian = system: SK-OV-3 ovarian
RXF 393 renal = system: RXF 393 renal
HOP-92 NSCLC = system: HOP-92 NSCLC
SF-295 CNS = system: SF-295 CNS
HT29 colon = system: HT29 colon
SN12C renal = system: SN12C renal
SK-MEL-5 melanoma = system: SK-MEL-5 melanoma
HCC-2998 colon = system: HCC-2998 colon
PC-3 prostate = system: PC-3 prostate
K-562 leukemia = system: K-562 leukemia
LOX IMVI melanoma = system: LOX IMVI melanoma
MDA-MB-435 = system: MDA-MB-435

## COc1cccc2cc(N(C)c3nc(C)nc4c3CCC4)ccc12
KM12 colon
  GI50: < 0.01 µM
  TGI: 10.7 µM
DU-145 prostate
  GI50: < 0.01 µM
  TGI: 12 µM
IGROV1 ovarian
  GI50: < 0.01 µM
  TGI: 23.9 µM
NCI/ADR-RES ovarian
  GI50: < 0.01 µM
  TGI: 16.1 µM
NCI-H23 lung
  GI50: < 0.01 µM
  TGI: 18 µM
OVCAR-5 ovarian
  GI50: < 0.01 µM
  TGI: 19.6 µM
SW-620 colon
  GI50: < 0.01 µM
  TGI: 18.6 µM
RPMI-8226 leukemia
  GI50: < 0.01 µM
  TGI: 18.5 µM
UACC-62 melanoma
  TGI: 18.1 µM
U251 CNS
  GI50: < 0.01 µM
  TGI: 12.8 µM
MDA-MB-231 breast
  GI50: < 0.01 µM
  TGI: 14.7 µM
A498 renal
  GI50: < 0.01 µM
  TGI: 14.7 µM
OVCAR-8 ovarian
  GI50: < 0.01 µM
  TGI: 19.2 µM
CAKI-1 renal
  GI50: < 0.01 µM
  TGI: 18.9 µM
TK-10 renal
  GI50: 9.32 µM
  TGI: 30.5 µM
HOP-62 NSCLC
  GI50: < 0.01 µM
  TGI: 13.1 µM
SK-MEL-28 melanoma
  GI50: 4.7 µM
  TGI: 21.6 µM
SF-268 CNS
  GI50: < 0.01 µM
  TGI: 15.6 µM
MCF7 breast
  GI50: < 0.01 µM
  TGI: 14.6 µM
786-0 renal
  GI50: < 0.01 µM
  TGI: 14.4 µM
HL-60(TB) leukemia
  GI50: < 0.01 µM
  TGI: 0.0103 µM
M14 melanoma
  GI50: < 0.01 µM
  TGI: 14 µM
NCI-H226 lung
  GI50: 12.7 µM
  TGI: 32.4 µM
SR leukemia
  GI50: < 0.01 µM
  TGI: 11.3 µM
SF-539 CNS
  GI50: < 0.01 µM
  TGI: < 0.01 µM
BT-549 breast
  GI50: < 0.01 µM
  TGI: 11 µM
MOLT-4 leukemia
  GI50: < 0.01 µM
  TGI: 16.1 µM
UO-31 renal
  GI50: < 0.0104 µM
  TGI: 18.1 µM
OVCAR-4 ovarian
  GI50: < 0.0104 µM
  TGI: 20 µM
HCT-116 colon
  GI50: < 0.01 µM
  TGI: 10.4 µM
SK-MEL-2 melanoma
  GI50: < 0.01 µM
  TGI: 14.2 µM
NCI-H460 lung
  GI50: < 0.01 µM
  TGI: 12.4 µM
T-47D breast
  GI50: 5.38 µM
  TGI: 41.8 µM
SNB-75 CNS
  TGI: 24.2 µM
EKVX NSCLC
  GI50: < 0.01 µM
  TGI: 30.7 µM
NCI-H522 lung
  GI50: < 0.01 µM
  TGI: < 0.01 µM
OVCAR-3 ovarian
  GI50: < 0.01 µM
  TGI: < 0.01 µM
A549 NSCLC
  GI50: < 0.01 µM
  TGI: 14.2 µM
CCRF-CEM leukemia
  GI50: < 0.01 µM
  TGI: 14.7 µM
UACC-257 melanoma
  GI50: 2.57 µM
  TGI: 20.6 µM
HS 578T breast
  GI50: < 0.01 µM
  TGI: 30 µM
COLO 205 colon
  GI50: < 0.01 µM
  TGI: < 0.01 µM
MALME-3M melanoma
  GI50: 12 µM
  TGI: 27.9 µM
HCT-15 colon
  GI50: < 0.01 µM
  TGI: 6.41 µM
SNB-19 CNS
  GI50: < 0.01 µM
  TGI: 21.6 µM
ACHN renal
  GI50: < 0.01 µM
  TGI: 13.7 µM
SK-OV-3 ovarian
  GI50: < 0.01 µM
RXF 393 renal
  GI50: < 0.01 µM
  TGI: 23.7 µM
HOP-92 NSCLC
  GI50: < 0.0169 µM
  TGI: 1.48 µM
SF-295 CNS
  GI50: < 0.01 µM
  TGI: 12.5 µM
HT29 colon
  GI50: < 0.01 µM
  TGI: 0.608 µM
SN12C renal
  GI50: < 0.01 µM
  TGI: 22.4 µM
SK-MEL-5 melanoma
  GI50: < 0.01 µM
  TGI: 0.0161 µM
HCC-2998 colon
  GI50: < 0.01 µM
  TGI: 14 µM
PC-3 prostate
  GI50: < 0.01 µM
  TGI: 16.4 µM
K-562 leukemia
  GI50: < 0.01 µM
  TGI: 31.5 µM
LOX IMVI melanoma
  GI50: < 0.01 µM
  TGI: 13.8 µM

## CCCCCCCCCCCCC(O)c1ccco1 (centres undefined)
KM12 colon
  GI50: 21.7 µM
  TGI: 48.1 µM
DU-145 prostate
  GI50: 19.3 µM
  TGI: 35.1 µM
IGROV1 ovarian
  GI50: 21.1 µM
  TGI: 42.7 µM
NCI/ADR-RES ovarian
  GI50: 16.4 µM
  TGI: 30.8 µM
NCI-H23 lung
  GI50: 16.2 µM
  TGI: 30.4 µM
OVCAR-5 ovarian
  GI50: 16.1 µM
  TGI: 30.3 µM
SW-620 colon
  GI50: 16.7 µM
  TGI: 32 µM
RPMI-8226 leukemia
  GI50: 21 µM
  TGI: 49.2 µM
UACC-62 melanoma
  GI50: 17.7 µM
  TGI: 32.4 µM
U251 CNS
  GI50: 16.2 µM
  TGI: 29.7 µM
MDA-MB-231 breast
  GI50: 17.4 µM
  TGI: 32.7 µM
OVCAR-8 ovarian
  GI50: 25.6 µM
  TGI: 52.9 µM
CAKI-1 renal
  GI50: 18 µM
  TGI: 33.4 µM
TK-10 renal
  GI50: 22.8 µM
  TGI: 40.9 µM
HOP-62 NSCLC
  GI50: 20.6 µM
  TGI: 36.8 µM
SK-MEL-28 melanoma
  GI50: 24.3 µM
  TGI: 55.3 µM
SF-268 CNS
  GI50: 19.1 µM
  TGI: 46 µM
MCF7 breast
  GI50: 29.4 µM
  TGI: > 100 µM
786-0 renal
  GI50: 19.7 µM
  TGI: 36.6 µM
M14 melanoma
  GI50: 21 µM
  TGI: 37.9 µM
NCI-H226 lung
  GI50: 20.8 µM
  TGI: 37.9 µM
SF-539 CNS
  GI50: 20.9 µM
  TGI: 38.7 µM
BT-549 breast
  GI50: 20.1 µM
  TGI: 40.8 µM
MOLT-4 leukemia
  GI50: 25.4 µM
  TGI: 52 µM
UO-31 renal
  GI50: 19 µM
  TGI: 39.7 µM
MDA-MB-435
  GI50: 19.4 µM
  TGI: 35.6 µM
OVCAR-4 ovarian
  GI50: 29.7 µM
  TGI: 78.3 µM
HCT-116 colon
  GI50: 22.2 µM
  TGI: 52.1 µM
SK-MEL-2 melanoma
  GI50: 22 µM
  TGI: 46 µM
NCI-H460 lung
  GI50: 29.5 µM
  TGI: > 100 µM
T-47D breast
  GI50: 35.5 µM
  TGI: > 100 µM
SNB-75 CNS
  GI50: 21.1 µM
  TGI: 39 µM
EKVX NSCLC
  GI50: 20.8 µM
  TGI: 38.8 µM
NCI-H522 lung
  GI50: 20 µM
  TGI: 41 µM
OVCAR-3 ovarian
  GI50: 17.9 µM
  TGI: 34.4 µM
A549 NSCLC
  GI50: 25.5 µM
  TGI: 48.1 µM
CCRF-CEM leukemia
  GI50: 19.4 µM
  TGI: 38.5 µM
UACC-257 melanoma
  GI50: 22.6 µM
  TGI: 39.4 µM
HS 578T breast
  GI50: 16.2 µM
  TGI: 35.7 µM
COLO 205 colon
  GI50: 36.6 µM
  TGI: > 100 µM
HCT-15 colon
  GI50: 19.2 µM
  TGI: 36 µM
SNB-19 CNS
  GI50: 25.9 µM
  TGI: 70.7 µM
ACHN renal
  GI50: 17.9 µM
  TGI: 31.7 µM
SK-OV-3 ovarian
  GI50: 22.5 µM
  TGI: 44.7 µM
RXF 393 renal
  GI50: 24 µM
  TGI: 44.7 µM
HOP-92 NSCLC
  GI50: 15.5 µM
  TGI: 32.1 µM
SF-295 CNS
  GI50: 19.7 µM
  TGI: 39.3 µM
HT29 colon
  GI50: 35.8 µM
  TGI: > 100 µM
SN12C renal
  GI50: 17.1 µM
  TGI: 31.7 µM
SK-MEL-5 melanoma
  GI50: 14.8 µM
  TGI: 28.2 µM
HCC-2998 colon
  GI50: 18.4 µM
  TGI: 32.3 µM
PC-3 prostate
  GI50: 16.9 µM
  TGI: 30.7 µM
K-562 leukemia
  GI50: 29.1 µM
  TGI: 48 µM
LOX IMVI melanoma
  GI50: 17.9 µM
  TGI: 32.2 µM
